≈ marks a conversion by molar mass, not a printed value.
Experiments:
RPMI-8226 = experiment: Growth inhibition of human RPMI8226 cells at 10 uM after 48 hrs by coulter counter analysis relative to control; type: functional; conditions: RPMI-8226, 48 h, read-out: GI
SW-620 = experiment: Growth inhibition of human SW620 cells at 10 uM after 48 hrs by coulter counter analysis relative to control; type: functional; conditions: SW-620, 48 h, read-out: GI
[1] = test system: Chromobacterium violaceum; experiment: Antiquorum-sensing activity against Chromobacterium violaceum ATCC 12472 after 48 hrs; type: functional
NCI-H226 = experiment: Growth inhibition of human NCI-H226 cells at 10 uM after 48 hrs by coulter counter analysis relative to control; type: functional; conditions: NCI-H226, 48 h, read-out: GI
RXF 393 = experiment: Growth inhibition of human RXF393 cells at 10 uM after 48 hrs by coulter counter analysis relative to control; type: functional; conditions: RXF 393, 48 h, read-out: GI
UO-31 = experiment: Growth inhibition of human UO31 cells at 10 uM after 48 hrs by coulter counter analysis relative to control; type: functional; conditions: UO-31, 48 h, read-out: GI
[2] = Toxicity against brine shrimp larvae assessed as mortality at 10 ug/mL after 24 hrs by binocular microscopic analysis relative to control; type: organism-based; conditions: artemia salina, in vivo
MDA-MB-468 = experiment: Growth inhibition of human MDA-MB-468 cells at 10 uM after 48 hrs by coulter counter analysis relative to control; type: functional; conditions: MDA-MB-468, 48 h, read-out: GI
SK-MEL-5 = experiment: Growth inhibition of human SK-MEL-5 cells at 10 uM after 48 hrs by coulter counter analysis relative to control; type: functional; conditions: SK-MEL-5, 48 h, read-out: GI
[3] = Toxicity against brine shrimp larvae assessed as mortality at 1000 ug/mL after 24 hrs by binocular microscopic analysis relative to control; type: organism-based; conditions: artemia salina, in vivo
Escherichia coli = experiment: Antibacterial activity against Escherichia coli at 5 mg/mL after 24 hrs; type: functional; conditions: read-out: DIZ
Malme-3M = experiment: Growth inhibition of human MALME-3M cells at 10 uM after 48 hrs by coulter counter analysis relative to control; type: functional; conditions: read-out: GI
CAKI-1 = experiment: Growth inhibition of human CAKI-1 cells at 10 uM after 48 hrs by coulter counter analysis relative to control; type: functional; conditions: CAKI-1, 48 h, read-out: GI
MDA-MB-231 = experiment: Growth inhibition of human MDA-MB-231 cells at 10 uM after 48 hrs by coulter counter analysis relative to control; type: functional; conditions: MDA-MB-231, 48 h, read-out: GI
MDA-MB-435 = experiment: Growth inhibition of human MDA-MB-435 cells at 10 uM after 48 hrs by coulter counter analysis relative to control; type: functional; conditions: MDA-MB-435, 48 h, read-out: GI
SK-OV-3 = experiment: Growth inhibition of human SKOV3 cells at 10 uM after 48 hrs by coulter counter analysis relative to control; type: functional; conditions: SK-OV-3, 48 h, read-out: GI
OVCAR-8 = experiment: Growth inhibition of human OVCAR8 cells at 10 uM after 48 hrs by coulter counter analysis relative to control; type: functional; conditions: OVCAR-8, 48 h, read-out: GI
Candida albicans = experiment: Antifungal activity against Candida albicans at 5 mg/mL after 48 hrs; type: functional; conditions: read-out: DIZ
OVCAR-3 = experiment: Growth inhibition of human OVCAR3 cells at 10 uM after 48 hrs by coulter counter analysis relative to control; type: functional; conditions: OVCAR-3, 48 h, read-out: GI
[4] = Growth inhibition of human NCI-ADR-RES cells at 10 uM after 48 hrs by coulter counter analysis relative to control; type: functional; conditions: read-out: GI
786-0 = experiment: Growth inhibition of human 786-0 cells at 10 uM after 48 hrs by coulter counter analysis relative to control; type: functional; conditions: 786-0, 48 h, read-out: GI
Artemia salina = experiment: (§1) Toxicity against brine shrimp larvae assessed as mortality after 24 hrs by binocular microscopic analysis; type: organism-based; conditions: in vivo, 24 h
[5] = as §1; type: organism-based; conditions: artemia salina, in vivo
SR = experiment: Growth inhibition of human SR cells at 10 uM after 48 hrs by coulter counter analysis relative to control; type: functional; conditions: read-out: GI
SNB-19 = experiment: Growth inhibition of human SNB19 cells at 10 uM after 48 hrs by coulter counter analysis relative to control; type: functional; conditions: SNB-19, 48 h, read-out: GI
T47D = experiment: Growth inhibition of human T47D cells at 10 uM after 48 hrs by coulter counter analysis relative to control; type: functional; conditions: read-out: GI
[6] = Growth inhibition of human EKVX cells at 10 uM after 48 hrs by coulter counter analysis relative to control; type: functional; conditions: read-out: GI
HL-60(TB) = experiment: Growth inhibition of human HL-60(TB) cells at 10 uM after 48 hrs by coulter counter analysis relative to control; type: functional; conditions: HL-60, 48 h, read-out: GI
UACC-257 = experiment: Growth inhibition of human UACC257 cells at 10 uM after 48 hrs by coulter counter analysis relative to control; type: functional; conditions: UACC-257, 48 h, read-out: GI
HT-29 = experiment: Growth inhibition of human HT-29 cells at 10 uM after 48 hrs by coulter counter analysis relative to control; type: functional; conditions: HT-29, 48 h, read-out: GI
[7] = Growth inhibition of human HCC2998 cells at 10 uM after 48 hrs by coulter counter analysis relative to control; type: functional; conditions: HCC 2998, 48 h, read-out: GI
ACHN = experiment: Growth inhibition of human ACHN cells at 10 uM after 48 hrs by coulter counter analysis relative to control; type: functional; conditions: read-out: GI
KM12 = experiment: Growth inhibition of human KM12 cells at 10 uM after 48 hrs by coulter counter analysis relative to control; type: functional; conditions: KM12, 48 h, read-out: GI

Compound | inhibition of growth at 10 µM (RPMI-8226) [%] | inhibition of growth at 10 µM (SW-620) [%] | diameter of the inhibition zone (DIZ) [1] [mm] | inhibition of growth at 10 µM (NCI-H226) [%] | inhibition of growth at 10 µM (RXF 393) [%] | inhibition of growth at 10 µM (UO-31) [%] | mortality at 24 h, 10 ug/mL [2] [%] | inhibition of growth at 10 µM (MDA-MB-468) [%] | inhibition of growth at 10 µM (SK-MEL-5) [%] | mortality at 24 h, 1000 ug/mL [3] [%] | zone of inhibition at 5000 µg/mL (Escherichia coli) [mm] | inhibition of growth at 10 µM (Malme-3M) [%] | inhibition of growth at 10 µM (CAKI-1) [%] | inhibition of growth at 10 µM (MDA-MB-231) [%] | inhibition of growth at 10 µM (MDA-MB-435) [%] | inhibition of growth at 10 µM (SK-OV-3) [%] | inhibition of growth at 10 µM (OVCAR-8) [%] | zone of inhibition at 5000 µg/mL (Candida albicans) [mm] | inhibition of growth at 10 µM (OVCAR-3) [%] | inhibition of growth at 10 µM [4] [%] | further results
N#Cc1cnc2sc(S(N)(=O)=O)nn2c1=O | < 10 | < 10 | 10 | < 10 | < 10 | 10.5 | 50 | < 10 | < 10 | 96.6 | 5 | 28 | < 10 | < 10 | < 10 | < 10 | < 10 | 4 | < 10 | < 10 | inhibition of growth at 10 µM (786-0): < 10%; LC90 (Artemia salina): 777.87 µg/mL (≈ 3020 µM); LC50 at 24 h [5]: 432 µg/mL (≈ 1680 µM); inhibition of growth at 10 µM (SR): < 10%; inhibition of growth at 10 µM (SNB-19): < 10%; inhibition of growth at 10 µM (T47D): < 10%; inhibition of growth at 10 µM [6]: < 10%; inhibition of growth at 10 µM (HL-60(TB)): 18.4%; inhibition of growth at 10 µM (UACC-257): < 10%; inhibition of growth at 10 µM (HT-29): < 10%; inhibition of growth at 10 µM [7]: < 10%; inhibition of growth at 10 µM (ACHN): < 10%; inhibition of growth at 10 µM (KM12): < 10%
CCOC(=O)C1C(=O)N=C2SC(S(N)(=O)=O)=NN2C1c1ccc(N(C)C)cc1 (centres undefined) | < 10 | < 10 | <2 | < 10 | < 10 | 14.7 | 66.6 | < 10 | < 10 | 100 | < 2 | 14.9 | 21.1 | 34.6 | 21.3 | < 10 | < 10 | 10 | < 10 | < 10 | inhibition of growth at 10 µM (786-0): < 10%; LC90 (Artemia salina): 728.74 µg/mL (≈ 1710 µM); LC50 at 24 h [5]: 405 µg/mL (≈ 951 µM); inhibition of growth at 10 µM (SR): 10.3%; inhibition of growth at 10 µM (SNB-19): < 10%; inhibition of growth at 10 µM (T47D): < 10%; inhibition of growth at 10 µM [6]: 12.2%; inhibition of growth at 10 µM (HL-60(TB)): 21%; inhibition of growth at 10 µM (UACC-257): < 10%; inhibition of growth at 10 µM (HT-29): < 10%; inhibition of growth at 10 µM [7]: < 10%; inhibition of growth at 10 µM (ACHN): < 10%; inhibition of growth at 10 µM (KM12): < 10%
N#Cc1cnc2sc(S(N)(=O)=O)nn2c1=N | < 10 | < 10 | 11 | < 10 | < 10 | < 10 | 73.3 | < 10 | < 10 | 96.6 | < 2 | < 10 | 11.5 | 12 | < 10 | < 10 | < 10 | < 2 | < 10 | < 10 | inhibition of growth at 10 µM (786-0): < 10%; LC90 (Artemia salina): 754.4 µg/mL (≈ 2940 µM); LC50 at 24 h [5]: 419 µg/mL (≈ 1640 µM); inhibition of growth at 10 µM (SR): < 10%; inhibition of growth at 10 µM (SNB-19): < 10%; inhibition of growth at 10 µM (T47D): < 10%; inhibition of growth at 10 µM [6]: < 10%; inhibition of growth at 10 µM (HL-60(TB)): 29.3%; inhibition of growth at 10 µM (UACC-257): < 10%; inhibition of growth at 10 µM (HT-29): < 10%; inhibition of growth at 10 µM [7]: < 10%; inhibition of growth at 10 µM (ACHN): < 10%; inhibition of growth at 10 µM (KM12): < 10%
